Assay results reported in patent US20240425501A1, “NOVEL BICYCLIC HETEROARYL DERIVATIVES AS SOS1:KRAS PROTEINPROTEIN INTERACTION INHIBITORS” (SATYARX PHARMA INNOVATIONS PVT LTD, priority 2021, published 2024).

The molecules below were run against T1, hSOS1 enzyme / KRAS (G12C), GST-Tag, GDP-bound protein (Homo sapiens, UniProt Q07889) (assay: SOS1-mediated KRAS guanine nucleotide exchange (GEF) assay, HTRF ("On Assay")). Conditions: 1 μM compound.
T1 sequence (Q07889 564-1049 limits assumed): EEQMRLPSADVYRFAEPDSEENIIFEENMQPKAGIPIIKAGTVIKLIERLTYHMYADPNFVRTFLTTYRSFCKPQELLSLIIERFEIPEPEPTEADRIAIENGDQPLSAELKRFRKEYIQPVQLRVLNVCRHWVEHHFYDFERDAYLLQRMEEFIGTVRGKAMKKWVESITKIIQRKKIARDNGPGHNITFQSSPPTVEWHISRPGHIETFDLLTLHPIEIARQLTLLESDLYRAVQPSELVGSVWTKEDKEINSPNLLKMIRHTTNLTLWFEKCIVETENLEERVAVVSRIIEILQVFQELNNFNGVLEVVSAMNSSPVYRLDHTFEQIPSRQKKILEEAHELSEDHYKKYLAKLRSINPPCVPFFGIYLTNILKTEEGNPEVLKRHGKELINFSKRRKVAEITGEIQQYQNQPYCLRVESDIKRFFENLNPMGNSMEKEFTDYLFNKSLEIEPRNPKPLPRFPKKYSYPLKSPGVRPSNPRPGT
Type: biochemical
Procedure: Biochemical Assay: Measurement of SOS1-Mediated KRAS Guanine Nucleotide Exchange (GEF) Assay
This assay quantifies the HTRF-based SOS1 mediated guanine nucleotide exchange assay detecting GTP binding to KRAS (G12C), GST-Tag, GDP-bound protein. This is also referred as “On Assay”.The assay buffer composition is as follows: 10 mM HEPES pH-7, 150 mM NaCl, 5 mM MgCl2, 1 mM DTT, 0.05% BSA, 0.0025% IGEPAL CA-630 and MilliQ water. 0.5 μl of compounds diluted in assay buffer were dispensed into the respective wells of 384 black well test plate. 4.75 μl of KRAS working solution containing 100 nM KRAS (G12C), GST-Tag, GDP-bound protein GDP-loaded (Reaction biology) and 2 nM Anti GST-Tb cryptate (FRET donor, Cisbio) was added in assay buffer. The components were incubated for 10 min at 25° C.
4.75 μl of hSOS1 working solution containing 20 nM hSOS1 enzyme and 200 nM EDA-GTP-DY-647P (FRET acceptor, synthesized by Jena Bioscience (Germany), supplied as a 1 mM solution) was further added in assay buffer. 4.75 μl of inhibitor control having only 200 nM EDA-GTP-DY-647P1 component without hSOS1 working solution was added in the negative control well. The plate was short spun for few seconds and incubated for 10 min. HTRF was measured using Perkin Elmer-Nivo 5F multimode plate reader.
HTRF settings: EXCITATION FILTER—320/75 nm, EMISSION FILTER (1) —615/8 nm, EMISSION FILTER (2)—665/8 nm
`C[C@@H](Nc1nc(N2CCC2)nc2cnc(N3CCC(F)(F)CC3)cc12)c1cc(N)cc(C(F)(F)F)c1` [Example 51, (R)—N-(1-(3-amino-5-(trifluoromethyl)phenyl)ethyl)-2-(azetidin-1-yl)-6-(4,4-difluoropiperidin-1-yl)pyrido[3,4-d]pyrimidin-4-amine] showed an inhibition at 1 µM of no less than 50%.
`C[C@@H](Nc1nc(N2CCC2)nc2cnc(N3CCN(C4CCC4)CC3)cc12)c1cc(N)cc(C(F)(F)F)c1` [Example 52, (R)—N-(1-(3-amino-5-(trifluoromethyl)phenyl)ethyl)-2-(azetidin-1-yl)-6-(4-cyclobutylpiperazin-1-yl)pyrido[3,4-d]pyrimidin-4-amine] showed an inhibition at 1 µM of no less than 50%.
`C[C@@H](Nc1nc(N2CCC2)nc2cnc(N(C)C)cc12)c1cc(N)cc(C(F)(F)F)c1` [Example 53, (R)—N4-(1-(3-amino-5-(trifluoromethyl)phenyl)ethyl)-2-(azetidin-1-yl)-N6,N6-dimethylpyrido[3,4-d]pyrimidine-4,6-diamine] was tested, and the inhibition at 1 µM was no less than 50%.
For `CC(C)Nc1cc2c(N[C@H](C)c3cc(N)cc(C(F)(F)F)c3)nc(N3CCC3)nc2cn1` [Example 54, (R)—N4-(1-(3-amino-5-(trifluoromethyl)phenyl)ethyl)-2-(azetidin-1-yl)-N6-isopropylpyrido[3,4-d]pyrimidine-4,6-diamine], the inhibition at 1 µM was no less than 50%.
`CC(C)Nc1cc2c(N[C@H](C)c3cc(N)cc(C(F)(F)F)c3)nc(N3CCCC3)nc2cn1` [Example 55, (R)—N4-(1-(3-amino-5-(trifluoromethyl)phenyl)ethyl)-N6-isopropyl-2-(pyrrolidin-1-yl)pyrido[3,4-d]pyrimidine-4,6-diamine] was tested, and the inhibition at 1 µM was no less than 50%.
Work on `CNc1cc2c(N[C@H](C)c3cc(N)cc(C(F)(F)F)c3)nc(N3CCC3)nc2cn1` [Example 56, (R)—N4-(1-(3-amino-5-(trifluoromethyl)phenyl)ethyl)-2-(azetidin-1-yl)-N6-methylpyrido[3,4-d]pyrimidine-4,6-diamine] yielded an inhibition at 1 µM of no less than 50%.
`COc1nc(N[C@H](C)c2cc(N)cc(C(F)(F)F)c2)c2cc(N3CCOCC3)ncc2n1` [Example 57, (R)—N-(1-(3-amino-5-(trifluoromethyl)phenyl)ethyl)-2-methoxy-6-morpholinopyrido[3,4-d]pyrimidin-4-amine] showed an inhibition at 1 µM of no less than 50%.
Molecule `COc1nc(N[C@H](C)c2cc(N)cc(C(F)(F)F)c2)c2cc(N3CCC(OC)CC3)ncc2n1` [Example 58, (R)—N-(1-(3-amino-5-(trifluoromethyl)phenyl)ethyl)-2-methoxy-6-(4-methoxypiperidin-1-yl)pyrido[3,4-d]pyrimidin-4-amine] has an inhibition at 1 µM of no less than 50%.
For `C[C@@H](Nc1nc(Cl)nc2cnc(N3CCOCC3)cc12)c1cccc(C(F)F)c1F` [Example 59, (R)-2-chloro-N-(1-(3-(difluoromethyl)-2-fluorophenyl)ethyl)-6-morpholinopyrido[3,4-d]pyrimidin-4-amine], the inhibition at 1 µM was no less than 50%.
Work on `COC1CCN(c2cc3c(N[C@H](C)c4cccc(C(F)F)c4F)nc(Cl)nc3cn2)CC1` [Example 60, (R)-2-chloro-N-(1-(3-(difluoromethyl)-2-fluorophenyl)ethyl)-6-(4-methoxypiperidin-1-yl)pyrido[3,4-d]pyrimidin-4-amine] yielded an inhibition at 1 µM of no less than 50%.
Molecule `C[C@@H](Nc1nc(Cl)nc2cnc(N3CCN(C)CC3)cc12)c1cccc(C(F)F)c1F` [Example 61, (R)-2-chloro-N-(1-(3-(difluoromethyl)-2-fluorophenyl)ethyl)-6-(4-methylpiperazin-1-yl)pyrido[3,4-d]pyrimidin-4-amine] has an inhibition at 1 µM of no less than 50%.
For `CCN1CCN(c2cc3c(N[C@H](C)c4cccc(C(F)F)c4F)nc(Cl)nc3cn2)CC1` [Example 62, (R)-2-chloro-N-(1-(3-(difluoromethyl)-2-fluorophenyl)ethyl)-6-(4-ethylpiperazin-1-yl)pyrido[3,4-d]pyrimidin-4-amine], the inhibition at 1 µM was no less than 50%.
For `C[C@@H](Nc1nc(Cl)nc2cnc(C3CCOCC3)cc12)c1cc(N)cc(C(F)(F)F)c1` [Example 63, (R)—N-(1-(3-amino-5-(trifluoromethyl)phenyl)ethyl)-2-chloro-6-(tetrahydro-2H-pyran-4-yl)pyrido[3,4-d]pyrimidin-4-amine], the inhibition at 1 µM was no less than 50%.
Work on `C[C@@H](Nc1nc(Cl)nc2cnc(C3CCOCC3)cc12)c1cccc(C(F)F)c1F` [Example 64, (R)-2-chloro-N-(1-(3-(difluoromethyl)-2-fluorophenyl)ethyl)-6-(tetrahydro-2H-pyran-4-yl)pyrido[3,4-d]pyrimidin-4-amine] yielded an inhibition at 1 µM of no less than 50%.
In the case of `C[C@@H](Nc1nc(N(C)C)nc2cnc(C3CCOCC3)cc12)c1cc(N)cc(C(F)(F)F)c1` [Example 65, (R)—N4-(1-(3-amino-5-(trifluoromethyl)phenyl)ethyl)-N2,N2-dimethyl-6-(tetrahydro-2H-pyran-4-yl)pyrido[3,4-d]pyrimidine-2,4-diamine], the inhibition at 1 µM is reported as no less than 50%.
For `CNc1nc(N[C@H](C)c2cc(N)cc(C(F)(F)F)c2)c2cc(C3CCOCC3)ncc2n1` [Example 66, (R)—N4-(1-(3-amino-5-(trifluoromethyl)phenyl)ethyl)-N2-methyl-6-(tetrahydro-2H-pyran-4-yl)pyrido[3,4-d]pyrimidine-2,4-diamine], the inhibition at 1 µM was no less than 50%.
In the case of `C[C@@H](Nc1nc(N2CCC2)nc2cnc(C3CCOCC3)cc12)c1cc(N)cc(C(F)(F)F)c1` [Example 67, (R)—N-(1-(3-amino-5-(trifluoromethyl)phenyl)ethyl)-2-(azetidin-1-yl)-6-(tetrahydro-2H-pyran-4-yl)pyrido[3,4-d]pyrimidin-4-amine], the inhibition at 1 µM is reported as no less than 50%.
For `C[C@@H](Nc1nc(N2CCC2)nc2cnc(C3CCN(C)CC3)cc12)c1cc(N)cc(C(F)(F)F)c1` [Example 68, (R)—N-(1-(3-amino-5-(trifluoromethyl)phenyl)ethyl)-2-(azetidin-1-yl)-6-(1-methylpiperidin-4-yl)pyrido[3,4-d]pyrimidin-4-amine], the inhibition at 1 µM was no less than 50%.
`C[C@@H](Nc1nc(N(C)C)nc2cnc(C3CCN(C)CC3)cc12)c1cc(N)cc(C(F)(F)F)c1` [Example 69, (R)—N4-(1-(3-amino-5-(trifluoromethyl)phenyl)ethyl)-N2,N2-dimethyl-6-(1-methylpiperidin-4-yl)pyrido[3,4-d]pyrimidine-2,4-diamine] gave an inhibition at 1 µM of no less than 50%.
With `CCN1CCN(c2cc3c(N[C@H](C)c4cc(N)cc(C(F)(F)F)c4)nc(Cl)nc3cc2F)CC1` [Example 70, (R)—N-(1-(3-amino-5-(trifluoromethyl)phenyl)ethyl)-2-chloro-6-(4-ethylpiperazin-1-yl)-7-fluoroquinazolin-4-amine] the inhibition at 1 µM was no less than 50%.
For `CCN1CCN(c2cc3c(N[C@H](C)c4cc(N)cc(C(F)(F)F)c4)nc(Cl)nc3cc2C)CC1` [Example 71, (R)—N-(1-(3-amino-5-(trifluoromethyl)phenyl)ethyl)-2-chloro-6-(4-ethylpiperazin-1-yl)-7-methylquinazolin-4-amine], the inhibition at 1 µM was no less than 50%.
With `CCN1CCN(c2cc3c(N[C@H](C)c4cc(N)cc(C(F)(F)F)c4)nc(Cl)nc3cc2OC)CC1` [Example 72, (R)—N-(1-(3-amino-5-(trifluoromethyl)phenyl)ethyl)-2-chloro-6-(4-ethylpiperazin-1-yl)-7-methoxyquinazolin-4-amine] the inhibition at 1 µM was no less than 50%.
Molecule `CCN1CCN(c2ccc3nc(Cl)nc(N[C@H](C)c4cc(N)cc(C(F)(F)F)c4)c3c2)CC1` [Example 73, (R)—N-(1-(3-amino-5-(trifluoromethyl)phenyl)ethyl)-2-chloro-6-(4-ethylpiperazin-1-yl)quinazolin-4-amine] has an inhibition at 1 µM of no less than 50%.
